Results published in US10807968B2, “Substituted 2-(het)arylimidazolylcarboxyamides as pesticides” (Bayer CropScience Aktiengesellschaft, priority 2016, dated 2020).
Read-outs that look alike come from different tables or passages of the source.

Tests used:
[1] = log P determination by HPLC on reversed-phase (C18) columns, OECD Guideline 117; format: physicochemical; details: for chromatographic logP: reversed-phase (C18) HPLC column
Method: The log P values were determined in accordance with OECD Guideline 117 (EC Directive 92/69/EEC) by HPLC (high-performance liquid chromatography) using reversed-phase (RP) columns (C18), by the following methods:
[a] The LC-MS determination in the acidic range was carried out at pH 2.7 with 0.1% aqueous formic acid and acetonitrile (contains 0.1% formic acid) as mobile phases; linear gradient from 10% acetonitrile to 95% acetonitrile.
[b] LC-MS determination in the neutral range was carried out at pH 7.8 with 0.001 molar aqueous ammonium hydrogencarbonate solution and acetonitrile as mobile phases; linear gradient from 10% acetonitrile to 95% acetonitrile.

[2] = system: Myzus persicae; assay: Myzus persicae - oral test; format: in vivo; details: after 5 days; for efficacy in % (aphids killed): 20 ppm; for pest or weed control at 20 ppm: Myzus persicae, 120 h, read-out: efficacy in % (aphids killed)
Method: Solvent: 100 parts by weight of acetone
Subsequently, the plates are sealed with parafilm, which a mixed population of green peach aphids (Myzus persicae) within a second microtitre plate is able to puncture and imbibe the solution through it.
After 5 days, the efficacy in % is determined. 100% means that all the aphids have been killed; 0% means that no aphids have been killed.

[3] = system: Myzus persicae; assay: Myzus persicae - spray test (Chinese cabbage leaf discs); format: in vivo; details: 500 g/ha, after 6 days; for pest or weed control at 500 g/ha: Myzus persicae, foliar, 144 h, read-out: efficacy in % (aphids killed)
Method: Myzus persicae—Spray Test
Solvent: 78 parts by weight of acetone • • 1.5 parts by weight of dimethylformamide
Emulsifier: alkylaryl polyglycol ether
To produce a suitable preparation of active compound, 1 part by weight of active compound is dissolved using the specified parts by weight of solvent and made up with water containing an emulsi fier concentration of 1000 ppm until the desired concentration is attained. To produce further test concentrations, the formulation is diluted with emulsifier-containing water.
Discs of Chinese cabbage leaves (Brassica pekinensis) infested by all stages of the green peach aphid (Myzus persicae) are sprayed with an active compound formulation of the desired concentration.
After 6 days, the efficacy in % is determined. 100% means that all the aphids have been killed; 0% means that no aphids have been killed.

[4] = pH 2.7, HPLC, acidic range pH 2.7, 0.1% aqueous formic acid/acetonitrile, read-out: logp-acidic
[5] = pH 7.8, HPLC, neutral range pH 7.8, 0.001 molar aqueous ammonium hydrogencarbonate/acetonitrile, read-out: logp-neutral
[6] = HPLC, acidic range pH 2.7, 0.1% aqueous formic acid/acetonitrile
[7] = HPLC, neutral range pH 7.8, 0.001 molar aqueous ammonium hydrogencarbonate/acetonitrile

Structure (SMILES) | logp-neutral ([1]; pH 7.8) | logp-acidic ([1]; pH 2.7) | efficacy in % (aphids killed) [2] [%] | efficacy in % (aphids killed) [3] [%] | other results
CN(C(=O)c1cnc(-c2cccc(CC(F)(F)F)c2)n1C)c1cccnc1 [Example 56] | 1.96 | – | 100 | 90 | –
CSc1cccc(-c2ncc(C(=O)N(C)c3cccnc3)n2C)c1 [Example 3] | 1.75 | 1.24 | 100 | 90 | –
CN(C(=O)c1cnc(-c2cnn(-c3ccc(F)cc3)c2)n1C)c1cccnc1 [Example 25] | 1.68 | 1.21 | 100 | 90 | –
COC(=O)c1cc(F)ccc1-c1ncc(C(=O)N(C)c2cccnc2)n1C [Example 29] | 1.55 | 1.04 | 100 | 90 | –
CCN(C(=O)c1cnc(-c2cnc(OC)c(C#N)c2)n1C)c1cccnc1 [Example 75] | – | – | – | – | chromatographic logP [1, 4]: 1.46; chromatographic logP [1, 5]: 1.65; pest or weed control at 20 ppm [2]: 100%; pest or weed control at 500 g/ha [3]: 100%
CN(C(=O)c1cnc(-c2cccc(C(F)F)c2)n1C)c1cccnc1 [Example 48] | 1.65 | 1.22 | 100 | 100 | –
CN(C(=O)c1cnc(-c2cccc(SC(F)(F)F)c2)n1C)c1cccnc1 [Example 17] | 2.28 | 2.00 | 100 | 90 | –
CN(C(=O)c1cnc(-c2cccc3ccccc23)n1C)c1cccnc1 [Example 27] | 1.89 | 1.35 | 100 | 90 | –
CN(C(=O)c1cnc(-c2cccc(S(C)(=O)=O)c2)n1C)c1cccnc1 [Example 22] | 1.08 | 0.75 | 100 | 100 | –
CN(C(=O)c1cnc(-c2cnc(N3CCOCC3)c(C#N)c2)n1C)c1cccnc1 [Example 66] | 1.45 | 1.16 | 100 | 90 | –
CN(C(=O)c1cnc(-c2cccc(Cl)c2)n1C)c1cccnc1 [Example 10] | – | – | 100 | 90 | logp-acidic [1, 6]: 1.29
CN(C(=O)c1cnc(-c2cc(F)cc(C#N)c2)n1C)c1cccnc1 [Example 60] | 1.52 | 1.21 | 100 | 90 | –
CN(C(=O)c1cnc(-c2ccoc2)n1C)c1cccnc1 [Example 15] | – | – | 100 | 90 | logp-acidic [1, 6]: 0.29
CN(C(=O)c1cnc(-c2cn(C)nn2)n1C)c1cccnc1 [Example 74] | – | – | – | – | chromatographic logP [1, 4]: 0.27; chromatographic logP [1, 5]: 0.76; pest or weed control at 20 ppm [2]: 100%; pest or weed control at 500 g/ha [3]: 100%
CN(C(=O)c1cnc(-c2cc(F)cc(C(F)(F)F)c2)n1C)c1cccnc1 [Example 54] | 2.14 | 1.90 | 100 | 90 | –
C#Cc1ncc(C(=O)N(C)c2cccnc2)n1C [XIV, 2-ethynyl-N,1-dimethyl-N-(pyridin-3-yl)-1H-imidazole-5-carboxamide] | – | – | – | – | chromatographic logP [1, 4]: 0.53; chromatographic logP [1, 5]: 0.87
COCc1cccc(-c2ncc(C(=O)N(C)c3cccnc3)n2C)c1 [Example 19] | – | – | 90 | 90 | logp-acidic [1, 6]: 0.86; logp-neutral [1, 7]: 1.43
COc1ccc(-c2ncc(C(=O)N(C)c3cccnc3)n2C)cc1[N+](=O)[O-] [Example 96] | – | – | – | – | logp-acidic [1, 6]: 1.2; logp-neutral [1, 7]: 1.53
CCOC(=O)COc1cccc(-c2ncc(C(=O)N(C)c3cccnc3)n2C)c1 [Example 41] | 1.70 | 1.18 | – | – | –
CCOC(=O)COc1cc(-c2ncc(C(=O)N(C)c3cccnc3)n2C)ccc1F [Example 43] | – | 1.44 | – | – | –
CN(C(=O)c1cnc(Br)n1C)c1cccnc1 [XI] | – | – | – | – | chromatographic logP [1, 4]: 0.65; chromatographic logP [1, 5]: 0.93
CN(C(=O)c1cnc(-c2cccc(COC3CCOCC3)c2)n1C)c1cccnc1 [Example 20] | – | – | – | – | chromatographic logP [1, 4]: 1.11; chromatographic logP [1, 5]: 1.57; pest or weed control at 500 g/ha [3]: 90%
CN(C(=O)c1cnc(-c2ccncc2)n1C)c1cccnc1 [Example 33] | – | – | – | – | pest or weed control at 20 ppm [2]: 100%; pest or weed control at 500 g/ha [3]: 100%
CCN(C(=O)c1cncn1C)c1cccnc1 [VII-ethyl] | – | – | – | – | chromatographic logP [1, 5]: 0.78
Cc1cc(F)c(B2OC(C)(C)C(C)(C)O2)cc1SCC(F)(F)F [XVI, 2-{2-fluoro-4-methyl-5-[(2,2,2-trifluoroethyl)sulphanyl]phenyl}-4,4,5,5-tetramethyl-1,3,2-dioxaborolane] | – | – | – | – | chromatographic logP [1, 4]: 4.89; chromatographic logP [1, 5]: 4.8
Cc1cc(F)c(-c2ncc(C(=O)O)n2C)cc1SCC(F)(F)F [XIX] | – | – | – | – | chromatographic logP [1, 4]: 1.83; chromatographic logP [1, 5]: 0.95
CCOC(=O)COc1cc(-c2ncc(C(=O)N(C)c3cccnc3)n2C)cc(F)c1F [Example 42] | 2.02 | 1.80 | – | – | –
COC(=O)c1cnc(-c2cc(SCC(F)(F)F)c(C)cc2F)n1C [XVIII, methyl 2-{2-fluoro-4-methyl-5-[(2,2,2-trifluoroethyl)sulphanyl]phenyl}-1-methyl-1H-imidazole-5-carboxylate] | – | – | – | – | chromatographic logP [1, 4]: 3.09; chromatographic logP [1, 5]: 3.19

Now from value to compound, other results behind:

logp-neutral ([1]; pH 7.8) | logp-acidic ([1]; pH 2.7) | Structure (SMILES) | efficacy in % (aphids killed) [2] [%] | efficacy in % (aphids killed) [3] [%] | other results
1.68 | 1.28 | COc1ncc(-c2ncc(C(=O)N(C)c3cccnc3)n2C)cc1Cl [Example 90] | 100 | 90 | –
1.95 | 1.69 | CCOc1ncc(-c2ncc(C(=O)N(CC)c3cccnc3)n2C)cc1C#N [Example 76] | 100 | 90 | –
– | 0.9 | COc1ccc(OC)c(-c2ncc(C(=O)N(C)c3cccnc3)n2C)c1 [Example 85] | 100 | – | –
1.28 | 0.66 | COc1cc(-c2ncc(C(=O)N(C)c3cccnc3)n2C)cnc1OC [Example 93] | 100 | 90 | –
1.43 | 0.8 | CCOc1ncccc1-c1ncc(C(=O)N(C)c2cccnc2)n1C [Example 92] | 100 | 90 | –
2 | 1.75 | COc1ncc(-c2ncc(C(=O)N(C)c3cccnc3)n2C)cc1C(F)(F)F [Example 95] | 100 | 100 | –
1.67 | 1.37 | COc1cc(-c2ncc(C(=O)N(C)c3cccnc3)n2C)cc(OC)n1 [Example 97] | 100 | 100 | –
– | 0.7 | CN(C(=O)c1cnc(-c2cccc3c2OCC3)n1C)c1cccnc1 [Example 79] | 100 | 100 | –
1.59 | 1.14 | CSc1ccccc1-c1ncc(C(=O)N(C)c2cccnc2)n1C [Example 98] | 100 | – | –
